Assay results reported in the supplement of paper PMC10307832.

Experiments:
Assay in all cases: relative viability (nuclei count vs DMSO), 5 days (fraction); higher = more cells survive
201T = system: 201T
In short: (§1)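 One day after seeding in 1536-well plates, lung cancer cell lines were dosed by pin tool. Dosing was either single-drug or a fixed anchor-drug dose plus five library-drug doses (not always all listed) in √10 steps. After 5 days, nuclei were stained in one fix-and-stain step and counted on 4× images, and relative viability is the nuclei count of treated wells over that of vehicle wells, given as the median of duplicate plates.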

BEN = system: BEN
In short: as §1

COR-L 105 = system: COR-L 105
In short: as §1

EMC-BAC-2 = system: EMC-BAC-2
In short: as §1

H3255 = system: H3255
In short: as §1

HARA = system: HARA
In short: as §1

HCC-78 = system: HCC-78
In short: as §1

HOP-62 = system: HOP-62
In short: as §1

LC-2-ad = system: LC-2-ad
In short: as §1

LOU-NH91 = system: LOU-NH91
In short: as §1

LU99A = system: LU99A
In short: as §1

LXF-289 = system: LXF-289
In short: as §1

NCI-H1395 = system: NCI-H1395
In short: as §1

NCI-H1563 = system: NCI-H1563
In short: as §1

NCI-H1993 = system: NCI-H1993
In short: as §1

NCI-H2087 = system: NCI-H2087
In short: as §1

NCI-H2126 = system: NCI-H2126
In short: as §1

NCI-H2170 = system: NCI-H2170
In short: as §1

NCI-H650 = system: NCI-H650
In short: as §1

RERF-LC-KJ = system: RERF-LC-KJ
In short: as §1

SK-MES-1 = system: SK-MES-1
In short: as §1

UMC-11 = system: UMC-11
In short: as §1

Cc1csc(=NC2CCCCC2)n1/N=C/c1ccc(O)c(O)c1O [MIM1] + Cc1nc(NC(=O)N2CCC[C@H]2C(N)=O)sc1-c1ccnc(C(C)(C)C(F)(F)F)c1 [Alpelisib] (partner 2 µM)
relative viability (201T; first compound 0.2 µM): 1 | relative viability (201T; first compound 0.6325 µM): 1.03 | relative viability (201T; first compound 2 µM): 1.02 | relative viability (201T; first compound 6.325 µM): 0.942 | relative viability (201T; first compound 20 µM): 1.29 | relative viability (BEN; first compound 0.2 µM): 1.13 | relative viability (BEN; first compound 0.6325 µM): 0.99 | relative viability (BEN; first compound 2 µM): 1.21 | relative viability (BEN; first compound 6.325 µM): 1.01 | relative viability (BEN; first compound 20 µM): 0.445 | relative viability (COR-L 105; first compound 0.2 µM): 0.782 | relative viability (COR-L 105; first compound 0.6325 µM): 0.971 | relative viability (COR-L 105; first compound 2 µM): 0.849 | relative viability (COR-L 105; first compound 6.325 µM): 0.934 | relative viability (COR-L 105; first compound 20 µM): 0.966 | relative viability (EMC-BAC-2; first compound 0.2 µM): 0.718 | relative viability (EMC-BAC-2; first compound 0.6325 µM): 0.771 | relative viability (EMC-BAC-2; first compound 2 µM): 0.745 | relative viability (EMC-BAC-2; first compound 6.325 µM): 0.682 | relative viability (EMC-BAC-2; first compound 20 µM): 0.404 | relative viability (H3255; first compound 0.2 µM): 0.753 | relative viability (H3255; first compound 0.6325 µM): 0.56 | relative viability (H3255; first compound 2 µM): 0.642 | relative viability (H3255; first compound 6.325 µM): 0.523 | relative viability (H3255; first compound 20 µM): 0.311 | relative viability (HARA; first compound 0.2 µM): 0.887 | relative viability (HARA; first compound 0.6325 µM): 0.857 | relative viability (HARA; first compound 2 µM): 0.878 | relative viability (HARA; first compound 6.325 µM): 0.361 | relative viability (HARA; first compound 20 µM): 0.165 | relative viability (HCC-78; first compound 0.2 µM): 0.329 | relative viability (HCC-78; first compound 0.6325 µM): 0.388 | relative viability (HCC-78; first compound 2 µM): 0.362 | relative viability (HCC-78; first compound 6.325 µM): 0.365 | relative viability (HCC-78; first compound 20 µM): 0.359 | relative viability (HOP-62; first compound 0.2 µM): 0.785 | relative viability (HOP-62; first compound 0.6325 µM): 0.958 | relative viability (HOP-62; first compound 2 µM): 0.608 | relative viability (HOP-62; first compound 6.325 µM): 1.03 | relative viability (HOP-62; first compound 20 µM): 0.24 | relative viability (LC-2-ad; first compound 0.2 µM): 0.867 | relative viability (LC-2-ad; first compound 0.6325 µM): 0.905 | relative viability (LC-2-ad; first compound 2 µM): 0.946 | relative viability (LC-2-ad; first compound 6.325 µM): 0.527 | relative viability (LC-2-ad; first compound 20 µM): 0.116 | relative viability (LOU-NH91; first compound 0.2 µM): 0.704 | relative viability (LOU-NH91; first compound 0.6325 µM): 0.779 | relative viability (LOU-NH91; first compound 2 µM): 0.591 | relative viability (LOU-NH91; first compound 6.325 µM): 0.641 | relative viability (LOU-NH91; first compound 20 µM): 0.561 | relative viability (LU99A; first compound 0.2 µM): 0.488 | relative viability (LU99A; first compound 0.6325 µM): 0.495 | relative viability (LU99A; first compound 2 µM): 0.459 | relative viability (LU99A; first compound 6.325 µM): 0.487 | relative viability (LU99A; first compound 20 µM): 0.327 | relative viability (LXF-289; first compound 0.2 µM): 1.07 | relative viability (LXF-289; first compound 0.6325 µM): 0.998 | relative viability (LXF-289; first compound 2 µM): 1.02 | relative viability (LXF-289; first compound 6.325 µM): 0.82 | relative viability (LXF-289; first compound 20 µM): 0.609 | relative viability (NCI-H1395; first compound 0.2 µM): 0.947 | relative viability (NCI-H1395; first compound 0.6325 µM): 1.06 | relative viability (NCI-H1395; first compound 2 µM): 0.911 | relative viability (NCI-H1395; first compound 6.325 µM): 0.537 | relative viability (NCI-H1395; first compound 20 µM): 0.407 | relative viability (NCI-H1563; first compound 0.2 µM): 0.95 | relative viability (NCI-H1563; first compound 0.6325 µM): 1.04 | relative viability (NCI-H1563; first compound 2 µM): 0.873 | relative viability (NCI-H1563; first compound 6.325 µM): 0.802 | relative viability (NCI-H1563; first compound 20 µM): 0.657 | relative viability (NCI-H1993; first compound 0.2 µM): 0.715 | relative viability (NCI-H1993; first compound 0.6325 µM): 0.619 | relative viability (NCI-H1993; first compound 2 µM): 0.758 | relative viability (NCI-H1993; first compound 6.325 µM): 0.724 | relative viability (NCI-H1993; first compound 20 µM): 0.55 | relative viability (NCI-H2087; first compound 0.2 µM): 1.17 | relative viability (NCI-H2087; first compound 0.6325 µM): 1.2 | relative viability (NCI-H2087; first compound 2 µM): 1.06 | relative viability (NCI-H2087; first compound 6.325 µM): 0.886 | relative viability (NCI-H2087; first compound 20 µM): 0.706 | relative viability (NCI-H2126; first compound 0.2 µM): 0.708 | relative viability (NCI-H2126; first compound 0.6325 µM): 0.756 | relative viability (NCI-H2126; first compound 2 µM): 0.776 | relative viability (NCI-H2126; first compound 6.325 µM): 0.758 | relative viability (NCI-H2126; first compound 20 µM): 0.727 | relative viability (NCI-H2170; first compound 0.2 µM): 0.769 | relative viability (NCI-H2170; first compound 0.6325 µM): 0.814 | relative viability (NCI-H2170; first compound 2 µM): 0.812 | relative viability (NCI-H2170; first compound 6.325 µM): 0.651 | relative viability (NCI-H2170; first compound 20 µM): 0.337 | relative viability (NCI-H650; first compound 0.2 µM): 1.19 | relative viability (NCI-H650; first compound 0.6325 µM): 1.1 | relative viability (NCI-H650; first compound 2 µM): 1.27 | relative viability (NCI-H650; first compound 6.325 µM): 1.04 | relative viability (NCI-H650; first compound 20 µM): 0.396 | relative viability (RERF-LC-KJ; first compound 0.2 µM): 0.802 | relative viability (RERF-LC-KJ; first compound 0.6325 µM): 0.801 | relative viability (RERF-LC-KJ; first compound 2 µM): 0.704 | relative viability (RERF-LC-KJ; first compound 6.325 µM): 0.668 | relative viability (RERF-LC-KJ; first compound 20 µM): 0.213 | relative viability (SK-MES-1; first compound 0.2 µM): 0.913 | relative viability (SK-MES-1; first compound 0.6325 µM): 0.774 | relative viability (SK-MES-1; first compound 2 µM): 0.813 | relative viability (SK-MES-1; first compound 6.325 µM): 0.8 | relative viability (SK-MES-1; first compound 20 µM): 0.725 | relative viability (UMC-11; first compound 0.2 µM): 0.952 | relative viability (UMC-11; first compound 0.6325 µM): 1.04 | relative viability (UMC-11; first compound 2 µM): 0.962 | relative viability (UMC-11; first compound 6.325 µM): 0.69 | relative viability (UMC-11; first compound 20 µM): 0.224
